Like-named read-outs stand apart in the source and are kept apart here.
Assay: Pharmacokinetic study of abiraterone in hormone refractory prostate cancer patients, oral doses 250-2000 mg/day, fasted
Format: in vivo, human
Details: mean, fasted, plasma; for AUC(0-t) / Cmax / Tmax / AUC(0-inf): male, human; for AUC(0-inf): read-out: AUCINF_obs
Experimental: A group of 15 subjects was divided into five groups. Members of each group were orally administered doses of 250 mg/day, 500 mg/day, 750 mg/day, 1000 mg/day or 2000 mg/day once a day. Before administration the subjects had fasted. PK blood samples were measured at 1, 2, 4, 6, 8, 24, and 72 hours post dose.
To measure the amount of abiraterone and abiraterone acetate in the samples, these compounds were extracted from 100 uL human plasma using solid phase extraction (SPE) with cation mixed-mode polymer cartridges. Extracts were evaporated to dryness before reconstitution and analysis. Chromatography was carried out using a Luna™ C5 column (5 μm, 50 mm×2.1 mm id) with a gradient mobile phase consisting of 10 mM ammonium acetate and 2% propan-2-ol in acetonitrile. The flow rate was 0.2 mL/min and the run time 10.5 minutes. Abiraterone and abiraterone acetate were ionized using the electrospray interface in positive ion mode. Detection of analytes was via tandem mass spectrometry (MS/MS) in the multiple reaction monitoring (MRM) mode.
PK modeling was conducted using a non-compartmental model, extra vascular input for plasma with WinNonLin Software®. Pharmacokinetic parameters estimated in the model include: […]

[1] = 250 mg/day abiraterone acetate oral
[2] = 500 mg/day abiraterone acetate oral
[3] = 750 mg/day abiraterone acetate oral
[4] = 1000 mg/day abiraterone acetate oral
[5] = 2000 mg/day abiraterone acetate oral

AUC(0-t) [1]: 1.25 µM·h
Cmax [1]: 219 nM
Tmax [1]: 2.05 h
AUC(0-inf) [1]: 1.37 µM·h
AUC(0-t) [2]: 1.33 µM·h
Cmax [2]: 284 nM
Tmax [2]: 2.59 h
AUC(0-inf) [2]: 1.45 µM·h
AUC(0-t) [3]: 4.29 µM·h
Cmax [3]: 1030 nM
Tmax [3]: 1.71 h
AUC(0-inf) [3]: 4.54 µM·h
AUC(0-t) [4]: 5.03 µM·h
Cmax [4]: 659 nM
Tmax [4]: 3.09 h
AUC(0-inf) [4]: 5.32 µM·h
AUC(0-t) [5]: 4.75 µM·h
Cmax [5]: 531 nM
Tmax [5]: 2.67 h
AUC(0-inf) [5]: 4.98 µM·h
Cl_F_obs [1]: 567.2 L/h
HL_Lambda_z [1]: 11.6 h
Vz_F_obs [1]: 10772.0 L
Cl_F_obs [2]: 1347.2 L/h
HL_Lambda_z [2]: 9.5 h
Vz_F_obs [2]: 14032.5 L
Cl_F_obs [3]: 494 L/h
HL_Lambda_z [3]: 10.8 h
Vz_F_obs [3]: 8340 L
Cl_F_obs [4]: 861.6 L/h
HL_Lambda_z [4]: 9.9 h
Vz_F_obs [4]: 10125.5 L
Cl_F_obs [5]: 1280.3 L/h
HL_Lambda_z [5]: 12.0 h
Vz_F_obs [5]: 21598.8 L
SMILES: C[C@]12CC[C@H](O)CC1=CC[C@@H]1[C@@H]2CC[C@]2(C)C(c3cccnc3)=CC[C@@H]12 [Abiraterone]
